This is an account of results in patent US9452986B2, “6-heteroaryloxy- or 6-aryloxy-quinoline-2-carboxamides and method of use” (AbbVie Inc., priority 2014, dated 2016).

The structures appear in SMILES notation. A value given as a limit tells only on which side of the number the result lay.

In the first test the target is recombinant human Nav1.7 (Homo sapiens (Human), UniProt Q15858). Description: FRET-based membrane potential assay, recombinant human sodium channel Nav1.7. The test is classed as cell-based. Particulars: FRET-Membrane Potential Nav1.7 IC50. An outline of the steps: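 Channel activation used veratridine at its EC80, set by a dilution curve each experiment, together with Leiurus scorpion venom, added 3 min after compound. Membrane-potential ratio signals from FLIPR Tetra in HEPES-buffered HBSS were fitted to a four-parameter Hill equation for percent inhibition and IC50.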
Sequence of recombinant human Nav1.7 (Q15858 whole entry): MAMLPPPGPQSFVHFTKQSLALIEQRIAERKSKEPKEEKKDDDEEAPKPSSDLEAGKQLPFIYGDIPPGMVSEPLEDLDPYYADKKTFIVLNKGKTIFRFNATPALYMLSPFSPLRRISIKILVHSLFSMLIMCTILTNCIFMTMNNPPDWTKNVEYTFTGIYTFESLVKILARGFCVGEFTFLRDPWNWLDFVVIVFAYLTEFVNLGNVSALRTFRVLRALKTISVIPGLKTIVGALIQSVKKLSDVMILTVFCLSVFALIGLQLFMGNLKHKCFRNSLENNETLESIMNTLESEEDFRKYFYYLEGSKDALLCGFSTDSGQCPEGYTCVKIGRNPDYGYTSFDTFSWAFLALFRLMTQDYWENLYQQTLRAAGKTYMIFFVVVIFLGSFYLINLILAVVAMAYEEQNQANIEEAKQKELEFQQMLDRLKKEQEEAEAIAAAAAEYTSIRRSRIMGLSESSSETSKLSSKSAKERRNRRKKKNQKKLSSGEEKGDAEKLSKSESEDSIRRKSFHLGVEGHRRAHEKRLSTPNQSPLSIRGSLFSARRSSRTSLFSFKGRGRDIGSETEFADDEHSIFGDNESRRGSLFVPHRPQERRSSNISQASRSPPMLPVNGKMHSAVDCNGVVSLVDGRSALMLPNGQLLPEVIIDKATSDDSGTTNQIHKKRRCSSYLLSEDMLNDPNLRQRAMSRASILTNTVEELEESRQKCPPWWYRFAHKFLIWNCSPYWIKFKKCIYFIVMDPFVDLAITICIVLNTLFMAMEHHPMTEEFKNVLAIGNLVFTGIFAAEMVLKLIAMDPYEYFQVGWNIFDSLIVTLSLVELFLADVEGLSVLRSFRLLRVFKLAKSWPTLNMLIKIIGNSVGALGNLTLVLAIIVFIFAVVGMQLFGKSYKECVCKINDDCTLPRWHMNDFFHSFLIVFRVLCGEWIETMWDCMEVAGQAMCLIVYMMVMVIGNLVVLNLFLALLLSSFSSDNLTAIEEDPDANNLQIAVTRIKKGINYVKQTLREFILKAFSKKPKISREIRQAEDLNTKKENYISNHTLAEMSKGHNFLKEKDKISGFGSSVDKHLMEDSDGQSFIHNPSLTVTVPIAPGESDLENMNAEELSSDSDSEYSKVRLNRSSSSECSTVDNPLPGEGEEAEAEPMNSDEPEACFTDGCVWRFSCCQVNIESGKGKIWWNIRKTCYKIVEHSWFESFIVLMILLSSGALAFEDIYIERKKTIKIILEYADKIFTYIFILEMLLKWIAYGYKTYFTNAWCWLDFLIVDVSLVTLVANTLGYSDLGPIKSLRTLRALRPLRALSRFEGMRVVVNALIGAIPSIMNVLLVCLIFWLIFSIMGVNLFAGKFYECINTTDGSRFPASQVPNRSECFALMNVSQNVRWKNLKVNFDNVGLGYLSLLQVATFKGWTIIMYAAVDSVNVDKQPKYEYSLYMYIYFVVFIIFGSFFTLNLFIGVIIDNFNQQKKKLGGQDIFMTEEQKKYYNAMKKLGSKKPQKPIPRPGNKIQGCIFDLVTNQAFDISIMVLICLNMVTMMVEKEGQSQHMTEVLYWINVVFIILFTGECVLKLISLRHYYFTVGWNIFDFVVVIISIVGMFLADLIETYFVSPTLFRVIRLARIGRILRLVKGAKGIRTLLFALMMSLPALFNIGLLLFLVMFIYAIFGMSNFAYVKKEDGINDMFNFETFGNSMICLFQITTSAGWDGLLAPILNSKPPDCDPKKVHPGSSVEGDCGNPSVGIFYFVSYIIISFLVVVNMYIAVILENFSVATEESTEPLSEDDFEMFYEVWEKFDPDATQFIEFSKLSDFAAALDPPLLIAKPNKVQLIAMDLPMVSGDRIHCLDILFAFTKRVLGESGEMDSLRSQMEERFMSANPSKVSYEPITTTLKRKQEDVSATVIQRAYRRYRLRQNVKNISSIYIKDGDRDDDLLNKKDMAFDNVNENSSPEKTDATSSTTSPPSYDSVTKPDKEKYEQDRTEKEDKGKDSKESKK
`O=C(c1ccc2cc(Oc3ccc(C(F)(F)F)cn3)ccc2n1)N1CCN[C@H](CO)C1` [Example 276, [(3S)-3-(hydroxymethyl)piperazin-1-yl](6-{[5-(trifluoromethyl)pyridin-2-yl]oxy}quinolin-2-yl)methanone]: the IC50 turned out to be 3.1 µM.

Staying with this test, now noted: HEK293 cells stably expressing recombinant human Nav1.7; veratridine + scorpion venom depolarization; read-out: FRET-Membrane Potential Nav1.7 IC50.
For the compound `O=C(c1ccc2cc(Oc3ccc(C(F)(F)F)cn3)ccc2n1)N1CCc2ccccc2C1` [Example 253, 3,4-dihydroisoquinolin-2(1H)-yl(6-{[5-(trifluoromethyl)pyridin-2-yl]oxy}quinolin-2-yl)methanone], the concentration for half-maximal inhibition (IC50) is above 20 µM.
On the same count and under the same terms, the same measure for `CS(=O)(=O)C1CCN(C(=O)c2ccc3cc(Oc4ccc(C(F)(F)F)cn4)ccc3n2)CC1` [Example 254, [4-(methylsulfonyl)piperidin-1-yl](6-{[5-(trifluoromethyl)pyridin-2-yl]oxy}quinolin-2-yl)methanone]: 13.8 µM; for `CC1(O)CCN(C(=O)c2ccc3cc(Oc4ccc(C(F)(F)F)cn4)ccc3n2)CC1` [Example 255, (4-hydroxy-4-methylpiperidin-1-yl)(6-{[5-(trifluoromethyl)pyridin-2-yl]oxy}quinolin-2-yl)methanone]: 12.1 µM; for `O=C(c1ccc2cc(Oc3ccc(C(F)(F)F)cn3)ccc2n1)N1C[C@@H]2C[C@@H](CO)[C@H]1C2` [Example 257, [(1R,4R,6R)-6-(hydroxymethyl)-2-azabicyclo[2.2.1]hept-2-yl](6-{[5-(trifluoromethyl)pyridin-2-yl]oxy}quinolin-2-yl)methanone]: 10.6 µM.
On the same count and under the same terms, the same measure for `O=C(c1ccc2cc(Oc3ccc(C(F)(F)F)cn3)ccc2n1)N1C[C@@H]2C[C@H](CO)[C@H]1C2` [Example 258, [(1R,4R,6S)-6-(hydroxymethyl)-2-azabicyclo[2.2.1]hept-2-yl](6-{[5-(trifluoromethyl)pyridin-2-yl]oxy}quinolin-2-yl)methanone]: 6.13 µM; for `CN1CCCN(C(=O)c2ccc3cc(Oc4ccc(C(F)(F)F)cn4)ccc3n2)CC1` [Example 260, (4-methyl-1,4-diazepan-1-yl)(6-{[5-(trifluoromethyl)pyridin-2-yl]oxy}quinolin-2-yl)methanone]: 1.04 µM.
Same read-out and setting: then `O=C(c1ccc2cc(Oc3ccc(C(F)(F)F)cn3)ccc2n1)N1CCN(C2CC2)CC1` [Example 261, (4-cyclopropylpiperazin-1-yl)(6-{[5-(trifluoromethyl)pyridin-2-yl]oxy}quinolin-2-yl)methanone], with 6.31 µM.
`O=C(c1ccc2cc(Oc3ccc(C(F)(F)F)cn3)ccc2n1)N1CCN(c2ccccc2)CC1` [Example 262, (4-phenylpiperazin-1-yl)(6-{[5-(trifluoromethyl)pyridin-2-yl]oxy}quinolin-2-yl)methanone]: the IC50 was 2.09 µM.
As for `CC(C)[C@@H]1CN(C(=O)c2ccc3cc(Oc4ccc(C(F)(F)F)cn4)ccc3n2)CCN1` [Example 263, [(3R)-3-isopropylpiperazin-1-yl](6-{[5-(trifluoromethyl)pyridin-2-yl]oxy}quinolin-2-yl)methanone], the IC50 stood at 0.402 µM.
On the same count and under the same terms, the same measure for `O=C(NC1CCNCC1)c1ccc2cc(Oc3ccc(C(F)(F)F)cn3)ccc2n1` [Example 264, N-(piperidin-4-yl)-6-{[5-(trifluoromethyl)pyridin-2-yl]oxy}quinoline-2-carboxamide]: 3.21 µM; for `O=C(c1ccc2cc(Oc3ccc(C(F)(F)F)cn3)ccc2n1)N1CCC(CO)CC1` [Example 265, [4-(hydroxymethyl)piperidin-1-yl](6-{[5-(trifluoromethyl)pyridin-2-yl]oxy}quinolin-2-yl)methanone]: 3.45 µM.
Still for that read-out and setting: then `O=C(c1ccc2cc(Oc3ccc(C(F)(F)F)cn3)ccc2n1)N1CCC(CO)C1` (stereo not shown) [Example 266, [3-(hydroxymethyl)pyrrolidin-1-yl](6-{[5-(trifluoromethyl)pyridin-2-yl]oxy}quinolin-2-yl)methanone], with 5.76 µM; and `O=C(c1ccc2cc(Oc3ccc(C(F)(F)F)cn3)ccc2n1)N1CCN(c2cnccn2)CC1` [Example 268, [4-(pyrazin-2-yl)piperazin-1-yl](6-{[5-(trifluoromethyl)pyridin-2-yl]oxy}quinolin-2-yl)methanone], with 2.98 µM.
The same measure, in the same setting: then `O=C(c1ccc2cc(Oc3ccc(C(F)(F)F)cn3)ccc2n1)N1CCN(c2cccnc2)CC1` [Example 269, [4-(pyridin-3-yl)piperazin-1-yl](6-{[5-(trifluoromethyl)pyridin-2-yl]oxy}quinolin-2-yl)methanone], with 3.07 µM; and `O=C(c1ccc2cc(Oc3ccc(C(F)(F)F)cn3)ccc2n1)N1CCN(c2ncccn2)CC1` [Example 270, [4-(pyrimidin-2-yl)piperazin-1-yl](6-{[5-(trifluoromethyl)pyridin-2-yl]oxy}quinolin-2-yl)methanone], with 3.08 µM; and `O=C(c1ccc2cc(Oc3ccc(C(F)(F)F)cn3)ccc2n1)N1CCN(c2ccc(Cl)cn2)CC1` [Example 272, [4-(5-chloropyridin-2-yl)piperazin-1-yl](6-{[5-(trifluoromethyl)pyridin-2-yl]oxy}quinolin-2-yl)methanone], with 2.99 µM.
Turning to `CC[C@H]1CN(C(=O)c2ccc3cc(Oc4ccc(C(F)(F)F)cn4)ccc3n2)CCN1` [Example 273, [(3S)-3-ethylpiperazin-1-yl](6-{[5-(trifluoromethyl)pyridin-2-yl]oxy}quinolin-2-yl)methanone], the IC50 was 0.488 µM.
Still for that read-out and setting: then `CC(C)[C@H]1CN(C(=O)c2ccc3cc(Oc4ccc(C(F)(F)F)cn4)ccc3n2)CCN1` [Example 274, [(3S)-3-isopropylpiperazin-1-yl](6-{[5-(trifluoromethyl)pyridin-2-yl]oxy}quinolin-2-yl)methanone], with 0.304 µM; and `CC(O)c1ccc(Oc2ccc3nc(C(=O)N4CCNCC4)ccc3c2)cc1` (stereo not shown) [Example 275, {6-[4-(1-hydroxyethyl)phenoxy]quinolin-2-yl}(piperazin-1-yl)methanone], with 11.4 µM; and `CC(C)OC(=O)N1CCN(C(=O)c2ccc3cc(Oc4ccc(C(F)(F)F)cn4)ccc3n2)CC1` [Example 277, isopropyl 4-[(6-{[5-(trifluoromethyl)pyridin-2-yl]oxy}quinolin-2-yl)carbonyl]piperazine-1-carboxylate], with 3.09 µM.

Still in this test, the particulars now being: read-out: FRET-Membrane Potential Nav1.7 IC50.
Take `O=C(c1ccc2cc(Oc3ccc(C(F)(F)F)cn3)ccc2n1)N1CCC(O)CC1` [Example 256, (4-hydroxypiperidin-1-yl)(6-{[5-(trifluoromethyl)pyridin-2-yl]oxy}quinolin-2-yl)methanone]: the IC50 came out at 16.4 µM.
With `O=C(N[C@@H]1CC[C@@H]2CN(Cc3ccccc3)C[C@@H]21)c1ccc2cc(Oc3ccc(C(F)(F)F)cn3)ccc2n1` [Example 259, N-[(3aR,4R,6aS)-2-benzyloctahydrocyclopenta[c]pyrrol-4-yl]-6-{[5-(trifluoromethyl)pyridin-2-yl]oxy}quinoline-2-carboxamide], the half-inhibitory concentration (IC50) is 2.06 µM.
Still for that read-out and setting: the same measure for `O=C(NC1CC2CCC(C1)N2)c1ccc2cc(Oc3ccc(C(F)(F)F)cn3)ccc2n1` (stereo not shown) [Example 267, N-(8-azabicyclo[3.2.1]oct-3-yl)-6-{[5-(trifluoromethyl)pyridin-2-yl]oxy}quinoline-2-carboxamide]: 10.2 µM.
Same read-out and setting: the same measure for `O=C(c1ccc2cc(Oc3ccc(C(F)(F)F)cn3)ccc2n1)N1CCN(c2cccnn2)CC1` [Example 271, [4-(pyridazin-3-yl)piperazin-1-yl](6-{[5-(trifluoromethyl)pyridin-2-yl]oxy}quinolin-2-yl)methanone]: 11.2 µM.
